≈ marks a conversion by molar mass, not a printed value.
Tests used:
Format in all cases: functional
Staphylococcus aureus [1] = experiment: In vitro antimicrobial activity against methicillin resistant Staphylococcus aureus 1131.
Staphylococcus aureus [2] = experiment: In vitro antimicrobial activity against penicillin resistant Staphylococcus aureus 853.
Staphylococcus aureus [3] = experiment: In vitro antimicrobial activity against penicillin sensitive Staphylococcus aureus 663.
[4] = test system: Staphylococcus epidermidis; experiment: In vitro antimicrobial activity against Staphylococcus epidermidis.
Acholeplasma laidlawii = experiment: In vitro antimicrobial activity against Acholeplasma laidlawii.
Bacillus cereus = experiment: In vitro antimicrobial activity against Bacillus cereus.
Candida albicans = experiment: In vitro antimicrobial activity against Candida albicans.
Saccharomyces cerevisiae = experiment: In vitro antimicrobial activity against Saccharomyces cerevisiae.
Escherichia coli = experiment: In vitro antimicrobial activity against Escherichia coli 182+PMBN.

| Structure (SMILES) | MIC (Staphylococcus aureus [1]) | MIC (Staphylococcus aureus [2]) | MIC (Staphylococcus aureus [3]) | MIC [4] | MIC (Acholeplasma laidlawii) | MIC (Bacillus cereus) | MIC (Candida albicans) | MIC (Saccharomyces cerevisiae) | MIC (Escherichia coli) |
| --- | --- | --- | --- | --- | --- | --- | --- | --- | --- |
| CCCOc1c2cccc1Cc1cc3cc(c1OCCC)Cc1cccc(c1OCCC)Cc1cc(cc(c1OCCC)C2)C(=O)N[C@@H](C)C(=O)N[C@@H](C)C(=O)NCCNCCNC(=O)[C@H](C)NC(=O)[C@@H](C)NC3=O [VANCOMYCIN MIMIC] | 32 µg/mL (≈ 31 µM) | 32 µg/mL (≈ 31 µM) | 32 µg/mL (≈ 31 µM) | 32 µg/mL (≈ 31 µM) |  |  |  |  |  |
| CN[C@H](CC(C)C)C(=O)N[C@H]1C(=O)N[C@@H](CC(N)=O)C(=O)N[C@H]2C(=O)N[C@H]3C(=O)N[C@H](C(=O)N[C@H](C(=O)O)c4cc(O)cc(O)c4-c4cc3ccc4O)[C@H](O)c3ccc(c(Cl)c3)Oc3cc2cc(c3O[C@@H]2O[C@H](CO)[C@@H](O)[C@H](O)[C@H]2O[C@H]2C[C@](C)(N)[C@H](O)[C@H](C)O2)Oc2ccc(cc2Cl)[C@H]1O [VANCOMYCIN] |  |  |  |  | > 128 µg/mL | 2 µg/mL (≈ 1.38 µM) | > 128 µg/mL | > 128 µg/mL |  |
| CCCOc1c2cccc1Cc1cc3cc(c1OCCC)Cc1cccc(c1OCCC)Cc1cc(cc(c1OCCC)C2)C(=O)N[C@H](C)C(=O)NCCNCCNC(=O)[C@@H](C)NC3=O | 4 µg/mL (≈ 4.49 µM) | 8 µg/mL (≈ 8.99 µM) | 8 µg/mL (≈ 8.99 µM) | 8 µg/mL (≈ 8.99 µM) |  |  |  |  |  |
| CCCOc1c2cccc1Cc1cc3cc(c1OCCC)Cc1cccc(c1OCCC)Cc1cc(cc(c1OCCC)C2)C(=O)N[C@@H](C)C(=O)NCCNCCNC(=O)[C@H](C)NC3=O | 4 µg/mL (≈ 4.49 µM) | 16 µg/mL (≈ 18 µM) | 8 µg/mL (≈ 8.99 µM) | 4 µg/mL (≈ 4.49 µM) | > 128 µg/mL | 16 µg/mL (≈ 18 µM) | > 128 µg/mL | > 128 µg/mL | 32 µg/mL (≈ 35.9 µM) |
| CCCOc1c2cccc1Cc1cc3cc(c1OCCC)Cc1cccc(c1OCCC)Cc1cc(cc(c1OCCC)C2)C(=O)N[C@@H](C)C(=O)NCCN(C(=O)OC(C)(C)C)CCNC(=O)[C@H](C)NC3=O | 64 µg/mL (≈ 64.6 µM) | > 64 µg/mL | 64 µg/mL (≈ 64.6 µM) | 32 µg/mL (≈ 32.3 µM) |  |  |  |  |  |

— ChEMBL document CHEMBL1151088 (1996)
